Where two headings read alike, the source gives them in different places. A value given as a limit tells only on which side of the number the result lay.

Data set [1] addresses T1, yeast proteasome yβ5 subunit (Saccharomyces cerevisiae, UniProt P23724+P30656).
T1 construct: measured using 8 μg/mL of purified yCP or iCP
The data set can be described thus: Subunit selectivity, purified yeast proteasome yβ5. In kind it is biochemical. The procedure:
(§1) The compounds were diluted with lysis buffer; 10 μL of the compound-containing solution was added to the test wells at ten times the final concentration. […] The results are reported as the average of at least 3 technical replicates of IC50 values for proteasome inhibition.
(§2) Values and standard deviations were calculated from an assay performed in biological triplicate.

The target of data set [2] is T2, chymotrypsin-like activity of the 26S proteasome (Homo sapiens, UniProt P28074).
T2 construct: endogenous in cells; host or cells: Jurkat (ATCC TIB-152, E6-1 clone) cell lysate
T2 sequence (P28074 60-263): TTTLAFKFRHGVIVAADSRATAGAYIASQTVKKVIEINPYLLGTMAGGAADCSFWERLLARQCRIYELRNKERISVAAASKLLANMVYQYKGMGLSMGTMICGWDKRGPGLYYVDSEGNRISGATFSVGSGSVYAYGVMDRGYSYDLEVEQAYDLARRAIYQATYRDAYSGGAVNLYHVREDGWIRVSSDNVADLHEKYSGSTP
The data set can be described thus: Proteasome assay, chymotrypsin-like (ChT-L) activity, Suc-LLVY-AMC, Jurkat cell lysate. In kind it is biochemical. As to conditions: ± S.D., read-out: Proteasome Inhibition ChT-like IC50. The procedure:
(§3) The lysate was stored at −80° C. until the sample was used for the proteasome assay.
as §1

The target of data set [3] is T3, yeast proteasome yβ1 subunit (Saccharomyces cerevisiae, UniProt P25043+P38624).
T3 construct: measured using 8 μg/mL of purified yCP or iCP
As to the kind of experiment: Subunit selectivity, purified yeast proteasome yβ1. In kind it is biochemical. The procedure:
as §1, §2

For data set [4], the target named is T4, yeast proteasome yβ2 subunit (Saccharomyces cerevisiae, UniProt P25043+P25451).
T4 construct: measured using 8 μg/mL of purified yCP or iCP
As to the kind of experiment: Subunit selectivity, purified yeast proteasome yβ2. In kind it is biochemical. The procedure: as §1, §2

For a further data set, the system named is RPMI 8226 cells. The data set can be described thus: MTT assay cytotoxicity RPMI 8226. As to conditions: Homo sapiens. On the technique in general: Formazan colour is commonly taken as a measure of viable cells.
Another data set relates to MDA-MB-231 cells. As to the kind of experiment: MTT assay cytotoxicity MDA-MB-231. Conditions: Homo sapiens.
The next data set deals with MCF7 cells. The data set can be described thus: MTT assay cytotoxicity MCF7. As to conditions: Homo sapiens.
The target of data set [5] is T5, trypsin-like activity of the 26S proteasome (Homo sapiens, UniProt Q99436).
T5 construct: endogenous in cells; host or cells: Jurkat (ATCC TIB-152, E6-1 clone) cell lysate
T5 sequence (Q99436 44-277): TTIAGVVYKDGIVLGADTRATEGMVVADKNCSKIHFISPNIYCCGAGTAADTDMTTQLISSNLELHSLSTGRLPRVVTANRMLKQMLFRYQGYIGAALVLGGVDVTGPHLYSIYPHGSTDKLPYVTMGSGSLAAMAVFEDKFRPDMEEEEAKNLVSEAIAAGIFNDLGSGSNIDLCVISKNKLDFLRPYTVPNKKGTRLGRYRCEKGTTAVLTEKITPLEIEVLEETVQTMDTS
The data set can be described thus: Proteasome assay, trypsin-like (T-L) activity, SUC-RLR-AMC, Jurkat cell lysate. In kind it is biochemical. Here is the method: as §3, §1

Data set [6] has as its system cancer cells (MCF7, MDA-MB-231, RPMI 8226). The data set can be described thus: MTT cytotoxicity, cell line not given.
The test system of data set [7] is Jurkat cells. As to the kind of experiment: Apoptosis assay (Annexin V-FITC, flow cytometry). In kind it is cell-based, human. The procedure: Apoptosis assay: 1 mL of Jurkat cells, at a density of 500,000 cells per milliliter, was added to 12 wells of a 24 well microtiter plate. Cells were treated immediately using a serial dilution of the synthesized proteasome inhibitors, the benzyl ester of Cystargolide B and the belactosin-cystargolide hybrid molecule. 10 μM Paclitaxel and 0.2 μg/mL Doxorubicin hydrochloride were used as positive apoptosis controls and non-treated cells were used as a negative control. The cells were then incubated for 24 h at 37° C. and 5% CO2. The following day, Annexin V-FITC conjugate was used to assay for the expression of phosphatidyl serine on the […] of the cellular membrane. The cells were briefly pelleted, aspirated, and resuspended in 300 μL of a reaction mixture containing 0.2 μL/mL of the Annexin V FITC solution, 2 mM CaCl2 to enable binding, and 2 μg/mL propidium iodide as an indicator of cell permeability. Each sample was incubated at 37° C. for 20 minutes, and then analyzed by flow cytometry. Single, whole cells were selected based on the forward and the side-scatter. With an excitation of 488 nm Annexin V-FITC binding was identified using FL1 533 nm emission. Propidium iodide staining was selected based on FL2 585 nm emission. […] Measurements were taken in biological triplicate for each sample, and the results were confirmed in technical triplicate.
Background: In flow cytometry, cells or beads pass a laser one at a time.

The target in data set [8] is T6, immunoproteasome iβ5 subunit (Homo sapiens, UniProt P20618+P28062).
T6 construct: purchased Enzo Life Sciences
As to the kind of experiment: Subunit selectivity, purified immunoproteasome iβ5. In kind it is biochemical. Here is the method:
as §1, §2

Data set [9] relates to Jurkat cells. As to the kind of experiment: Cell cycle assay (flow cytometry). In kind it is cell-based, human. The procedure:
Vybrant® DyeCycle™ Orange Stain was used for the cell cycle assay. The amount of fluorescence of DNA was used as a relative measure of a cell's stage in the cell cycle. 500,000 Jurkat cells were added to wells on a 24 well microtiter plate in 1 mL of supplemented RPMI media. The cells were then treated with Compound 1 (TABLE 2). Using the cells treated for 12 and 24 hours, stained DNA fluorescence was measured via flow cytometry. The cells were taken from each well, pelleted briefly, aspirated, resuspended in 300 μL of 2 μL/mL Vybrant® DyeCycle™ Orange Stain, incubated at 37° C. for 15 minutes, and analyzed by flow cytometry. Selecting whole cells based on forward and side scatter, stained DNA fluorescence was excited at 488 nm and measured at an emission wavelength of 585 nm, using amount of fluorescence as a means of distinguishing between populations of cells. Populations were identified as G1 for the peak associated with the lowest amount of fluorescence, S phase for increased fluorescence appearing as a shoulder off of the G1 peak, and G2/M for approximately 2 times the fluorescence as the G1 peak. Measurements were taken in biological triplicate and confirmed in technical triplicate.

Data set [10] deals with ubiquitinated proteins in MCF7 cells. The data set can be described thus: Western blot of ubiquitinated proteins. In kind it is cell-based, human. The procedure:
The cells were incubated for 9.5 hrs at 37° C. and 5% CO2. After washing with PBS twice, cells were scraped, pelleted and lysed with CytoBuster™ Protein Extraction Reagent \ containing 10 μM compound 8, 10 μM Na3VO4, 0.017 mg/mL Aprotinin, 1 mM PMSF, and 1% Protease Inhibitor Cocktail. Thereafter 30 μg of protein in sample buffer (50 mM Tris-HCl, 2% SDS, 10% Glycerol, 1% β-mercaptoethanol, 12.5 mM EDTA, 0.02% Bromophenol Blue, pH 6.8) that had been boiled at 90° C. for 5 min, was electrophoresed using 6/8% SDS-PAGE, and the protein transferred to a […] PVDF membrane using a BioRad Trans-Blot® SD at 15 V for 17 minutes. The membrane was blocked with 1× casein buffer (Diluted 1:10 in water from casein blocking buffer 10×), and probed with either the polyclonal rabbit anti β-Actin (1:500) or the polyclonal rabbit anti-ubiquitin antibody (1:300), and stained with goat anti-rabbit IgG (H+L) HRP conjugate (1:3000) secondary antibodies. Antibody-recognized bands were visualized by a standard horseradish peroxidase chemiluminescent assay with an ECL kit.
A general note: A western blot detects proteins with antibodies after separation by electrophoresis.

The mark [11] stands for this setting: RPMI-8226, 48 h, read-out: Cytotoxicity RPMI 8226 IC50.
Where [12] appears, read: MDA-MB-231, 48 h, read-out: Cytotoxicity MDA-MB-231 IC50.
Where [13] appears, read: MCF7, 48 h, read-out: Cytotoxicity MCF7 IC50.
Where [14] appears, read: 8 μg/mL purified yCP, ± SD, read-out: yβ1 IC50.
The mark [15] stands for this setting: 8 μg/mL purified yCP, ± SD, read-out: yβ2 IC50.
[16] abbreviates: MDA-MB-231, read-out: Cytotoxicity MDA-MB-231 IC50.
Setting [17] is: MCF7, read-out: Cytotoxicity MCF7 IC50.
The mark [18] stands for this setting: 8 μg/mL purified iCP, ± SD, read-out: iβ5 IC50.

Description for MDA-MB-231 cells: The cells were incubated at 37° C. in a humidified atmosphere with 5% CO2.
100 μL of cells were added to each well of a 96 well microtiter plate at a concentration of 4×10^4 cells/mL and incubated overnight to allow proper adhesion. (RPMI 8226 cells were plated at 4×10^5 cells/mL). The cells were treated with the panel of test compounds at a series of concentrations, along with vehicle control DMSO and untreated cells as controls. After 48 h incubation, 20 μL of MTT reagent (3-(4,5-dimethylthiazol-2-yl)-2,5-diphenyltetrazolium bromide) in PBS (5 mg/mL) was added to each well of the plates. The plate was incubated for 2 h at 37° C. For adherent cell lines, the media was removed from each well of the plate and the resulting formazan crystals dissolved in 100 μL of DMSO. For RPMI 8226 cells, 200 ul of DMF/SDS mix (50% DMF. 10% w/v SDS pH<4) was used to solubilize the formazan crystals. Optical density (OD) at 490 nm was measured using a microplate reader. Cells treated with 1 μM phenyl arsine oxide (PAO) served as a positive cell-killing control. Technical replicates of these assays were performed in biological quadruplicate, and the three best values were used for analysis in order to eliminate outliers. Data presented are the average IC50 value calculated from at least 3 technical replicates with the corresponding standard deviation.

As for `CC[C@H](C)[C@@H]1C(=O)O[C@H]1C(=O)N[C@H](C(=O)N[C@H](C(=O)NCc1ccccc1)C(C)C)C(C)C` [Compound 11e, (2R,3S)—N—((S)-1-(((S)-1-(benzylamino)-3-methyl-1-oxobutan-2-yl)amino)-3-methyl-1-oxobutan-2-yl)-3-((S)-sec-butyl)-4-oxooxetane-2-carboxamide], the IC50 (as a rule, the concentration that inhibits the measured activity by half) in [1] stood at 5.4 ± 0.5 nM; in [2] (Table 4, P4 analogues) it was 4.5 ± 2.9 nM; in data set [3] it was 1380 ± 106 nM; in data set [4], 2920 ± 210 nM; in the data set on RPMI 8226 cells (setting [11]), 387 ± 177 nM; with MDA-MB-231 cells (setting [12]), 742 ± 212 nM. Besides, in the data set with MCF7 cells (setting [13]), the concentration for half-maximal inhibition (IC50) came to 814 ± 121 nM.
In the case of `CC[C@H](C)[C@@H]1C(=O)O[C@H]1C(=O)NCC(=O)N[C@H](C(=O)OCc1ccccc1)C(C)C` [Compound 10a, Benzyl ((2R,3S)-3-((S)-sec-butyl)-4-oxooxetane-2-carbonyl)glycyl-L-valinate], the IC50 was 3.8 ± 1.4 nM in data set [2] (Table 3, P2/P3 analogues); 256 ± 72 nM in data set [5]; 840 ± 429 nM with RPMI 8226 cells (setting [11]); 952 ± 262 nM with MDA-MB-231 cells (setting [12]); approximately 4000 nM in the data set on MCF7 cells (setting [13]). Moreover, the “concentration up to which complete cytotoxicity was not achieved” value in [6] is more than 100 µM.
Turning to `CC(C)[C@H](NC(=O)[C@@H]1OC(=O)[C@H]1C(C)C)C(=O)N[C@H](C(=O)OCc1ccccc1)C(C)C` [Compound 1], the concentration for half-maximal inhibition (IC50) came to 37.2 ± 4.5 nM in data set [1] (8 μg/mL purified yCP, ± SD, read-out: yβ5 IC50); 8.9 ± 6.2 nM in data set [2] (Table 2, P1 analogues); 44.7 ± 12.8 nM in data set [8]; 1950 ± 901 nM in [5] (Table 2, P1 analogues, ± S.D., read-out: Proteasome Inhibition T-L-like IC50); 4180 ± 438 nM in data set [3] (setting [14]); 14600 ± 910 nM in data set [4] (setting [15]). For the same compound, the 50% inhibitory concentration (IC50) is 1310 ± 745 nM in the data set on RPMI 8226 cells (setting [11]), 2790 ± 464 nM with MDA-MB-231 cells (setting [12]) and 8090 ± 4270 nM with MCF7 cells (setting [13]). Besides, the induction of apoptosis result in the data set on Jurkat cells [7] is recorded as “induction of apoptosis”. Moreover, the cell cycle arrest entry in the data set with Jurkat cells [9] is listed as “cell cycle arrest in the G2/M phase”. In addition, the “accumulation of ubiquitinated proteins” value in data set [10] is listed as “accumulation of ubiquitinated proteins”.
As for `CC(C)C[C@H](NC(=O)[C@H](CCc1ccccc1)NC(=O)CN1CCOCC1)C(=O)N[C@@H](Cc1ccccc1)C(=O)N[C@@H](CC(C)C)C(=O)[C@@]1(C)CO1` [Carfilzomib, reference compound], the IC50 in data set [3] is more than 1000 nM; in [4], more than 1000 nM; with MDA-MB-231 cells (setting [12]) it was 4 ± 2 nM; in the data set on MDA-MB-231 cells (setting [16]) it was 2.79 ± 0.464 nM; in the data set with MCF7 cells (setting [13]) it was 4 ± 1 nM; in the data set on MCF7 cells (setting [17]), 4.08 ± 0.056 nM.
For the compound `CC[C@H](C)[C@@H]1C(=O)O[C@H]1C(=O)N[C@H](C(=O)N[C@@H](COCc1ccccc1)C(=O)OCc1ccccc1)C(C)C` [Compound 10k, Benzyl O-benzyl-N-(((2R,3S)-3-((S)-sec-butyl)-4-oxooxetane-2-carbonyl)-L-valyl)-L-serinate], the IC50 in [1] was 24.5 ± 3.9 nM; in [8] (setting [18]), 9.1 ± 2.7 nM; in [5] (Table 3, P2/P3 analogues, ± S.D., read-out: Proteasome Inhibition T-L-like IC50) it was 1340 ± 334 nM; in [3], 17800 ± 2070 nM; in [4], more than 50000 nM; in the data set on RPMI 8226 cells (setting [11]), 50 ± 28 nM. Further, the 50% inhibitory concentration (IC50) turned out to be 40.5 ± 1.66 nM in the data set with RPMI 8226 cells (RPMI-8226, read-out: Cytotoxicity RPMI 8226 IC50); 90 ± 51 nM in the data set with MDA-MB-231 cells (setting [12]); 75.6 ± 3.49 nM in the data set on MDA-MB-231 cells (setting [16]); 284 ± 132 nM in the data set on MCF7 cells (setting [13]); 178 ± 23.4 nM with MCF7 cells (setting [17]). In [6], the “cytotoxicity IC50 for all three cell lines tested (in words)” value is given as “midrange nanomolar”. Besides, in [6], the “times less cytotoxic than carfilzomib” value is “about 10 times”.
Take `CC(C)C1C(=O)OC1C(=O)N[C@H](C(=O)N[C@H](C(=O)O)C(C)C)C(C)C` (some centres unmarked) [CysB, Cystargolide B, reference compound]: the 50% inhibitory concentration (IC50) in data set [8] (setting [18]) stood at 681 ± 177 nM; in data set [3] (setting [14]), 10200 ± 780 nM; in data set [4] (setting [15]), 61600 ± 4840 nM.

(Values after patent US11396497B2, “Proteasome inhibitors” (New Mexico Tech University Research Park Corporation, priority 2018, dated 2022).)
